Legend:
[1] = test system: human melanoma cell line A2058; assay: In vitro anti-proliferative activity (CelltiterGlo, ray design) in A2058, example 3; format: cell-based; details: for Absolute IC40: A2058, 96 hours, example 3
Description: (I) in combination with the BRAF inhibitor compound (II), experiments were conducted using human melanoma cell line A2058 (BRAF mutant, PTEN-deficient and unsensitive to said BRAF inhibitor).
(§1) The human melanoma A2058 cell line was purchased at ATCC (Ref number CRL-11147 Batch 5074651). The A2058 cells were cultured in DMEM High glucose medium supplemented with 10% FBS and 2 mM L-Glutamine.
Compounds (I) and (II) dilutions were prepared according to the material and methods of example 1. The final concentrations tested were defined by Ray design method described below. The DMSO concentration was 0.1% in controls and in all treated wells.
A ray design was used allowing the characterization of the interaction of the two compounds for several fixed proportion in the mixture. The ray design includes one ray for each single agent and 19 combination rays.
A2058 cells were plated at 4,000 cells/well in 384-well plates in appropriate culture medium and incubated for 6 hours at 37° C., 5% CO2. […] Cell growth was evaluated by measuring intracellular ATP using CelltiterGlo® reagent (Promega) according to the manufacturer's protocol. Briefly, CellTiterGlo® was added to each plate, incubated for 1 hour then luminescent signal was read on the MicroBeta Luminescent plate reader.
Four experiments have been performed on this cell line. For each experiment, two 384-well plates were used allowing working with duplicates for combination rays and with quadruplicates for single agent rays.
Inhibition of cell growth was estimated after treatment with single compounds or combination of compounds for four days and comparing the signal to cells treated with vehicle (DMSO) and following equation described in example 1.
These measurements allow determining the potential synergistic combinations in using the statistical method described in example 1.

[2] = test system: human melanoma cell line WM-266-4; assay: In vitro pro-apoptotic activity (PARP cleavage western blot) in WM-266-4, example 2; format: cell-based; details: for PARP cleavage signal (AU-BG): single agent 10 000 nM, 24 hours, WM-266-4, example 2
Description: The characterization of the interaction between compound (I) and compound (II) was studied using western blotting method measuring the expression of cleaved PARP which allows to investigate apoptosis by detecting the cleavage of the PARP protein.
(§2) The human melanoma WM-266-4 cell line was purchased at ATCC (Ref number CRL-1676 Batch 3272826). The WM-266-4 cells were cultured in RPMI1640 medium supplemented with 10% FBS and 2 mM L-Glutamine.
They were diluted following a 10 fold step dilution in DMSO in order to obtain a 1 mM solution. Then each solution at 10 mM and 1 mM was diluted 50-fold in culture medium containing 10% serum before being added onto cells with a 20-fold dilution factor to reach final concentrations of 10,000 nM and 1,000 nM. The final DMSO concentration was 0.1% in controls and in all treated wells.
WM-266-4 cells were seeded into 6-well microplates at 1 000 000 cells per well, in complete culture medium and incubated at 37° C., 5% CO2, overnight.
At the end of cell treatment period, adherent cells as well as cells in the cell culture supernatant were lysed for the preparation of the proteins. Cells were lysed in a lysis buffer containing Hepes 50 mM, NaCl 150 mM, Glycerol 10%, Triton 1%, pH=7.5, adding extemporaneously a cocktail of protease and phosphatase inhibitors diluted 100 fold. Protein concentrations in each sample were determined using microBCA technique according to manufacturer's instructions. Western blotting was performed loading 20 μg of proteins in each gel well, and according to the operating procedure. […] After western blotting revelation according to the operating procedure instructions, luminescence was read using FujiFilm (Ray Test) apparatus.
This instrument measures the total signal of luminescence obtained on Fujifilm machine (AU) for each selected band. Then, it subtracts the background value (BG) proportional to the size of the selected band or Area. The background is calculated from a band taken on the specific background of the western blot, to obtain the specific signal or (AU−BG) for each band. The calculation of the fold induction is performed for each treatment with compound or combination of compounds using the following formula:
Fold Induction=((AU−BG)t/(AU−BG)st)*100

[3] = test system: human melanoma cell line A2058; assay: In vitro pro-apoptotic activity (PARP cleavage western blot) in A2058, example 4; format: cell-based
Description: (§3) The characterization of the interaction between compound (I) and compound (II) was studied using western blotting method which allows investigating apoptosis by detecting the cleavage of the PARP protein.
as §1
(§4) Cell treatment, Western Blot experiment and calculation of apoptosis fold induction were performed according to the material and method described in example 2.

[4] = test system: human melanoma cell line WM-266-4; assay: In vitro pro-apoptotic activity (PARP cleavage) in WM-266-4 in a concentration-dependent manner, example 5; format: cell-based; details: WM-266-4, example 5
Description: as §3, §2
They were diluted following two 10-fold step dilution in DMSO in order to obtain a 1 mM solution and a 0.1 mM solution Then each solution at 10 mM, 1 mM or 0.1 mM was diluted 50-fold in culture medium containing 10% serum before being added onto cells with a 20-fold dilution factor to reach final concentrations of 10,000 nM, 1,000 nM and 100 nM. The final DMSO concentration was 0.1% in controls and in all treated wells.
as §4

[5] = test system: human melanoma cell line A2058; assay: In vitro pro-apoptotic activity (PARP cleavage) in A2058 in a concentration-dependent manner, example 6; format: cell-based; details: A2058, example 6
Description: as §3, §1, §4

[6] = test system: ribosomal protein S6 phosphorylated on Ser240/244 (pS6) in A2058 cells; assay: In vitro S6 phosphorylation inhibition (pS6 western blot) in A2058, example 8; format: cell-based, human; details: for inhibition at 0.1 µM: Homo sapiens
Description: The inhibitory effect on ribosomal S6 protein phosphorylation by both compounds alone or in combination was characterized using western blotting method which allows investigating S6 phosphorylation by detecting the expression of ribosomal protein S6 phosphorylated on Ser240/244 position (pS6).
as §1
Cell treatment, Western Blot experiment and calculation of percentage of pS6 inhibition were performed according to the material and method described in example 7.

[7] = single agent 10 000 nM, A2058, example 4
[8] = Homo sapiens, single agent 100 nM

SMILES	Absolute IC40 ([1]; single agent)	PARP cleavage signal (AU-BG) [2]	PARP cleavage signal (AU-BG) [3, 7]	PARP cleavage signal (AU-BG) ([4]; single agent 100 nM)	PARP cleavage signal (AU-BG) ([4]; single agent 1 000 nM)	PARP cleavage signal (AU-BG) ([4]; single agent 10 000 nM)	PARP cleavage signal (AU-BG) ([5]; single agent 100 nM)	PARP cleavage signal (AU-BG) ([5]; single agent 1 000 nM)	PARP cleavage signal (AU-BG) ([5]; single agent 10 000 nM)	inhibition at 0.1 µM ([6]; single agent 100 nM)	pS6 signal (AU-BG) ([6]; single agent 100 nM)	Inhibition % of S6 phosphorylation ([6]; single agent 1 000 nM)	pS6 signal (AU-BG) ([6]; single agent 1 000 nM)	Inhibition % of S6 phosphorylation ([6]; single agent 10 000 nM)	pS6 signal (AU-BG) ([6]; single agent 10 000 nM)	also measured
CCCS(=O)(=O)Nc1ccc(F)c(C(=O)c2c[nH]c3ncc(-c4ccc(Cl)cc4)cc23)c1F [Compound (II), 1-Propanesulfonamide,N-[3-[[5-(4-chlorophenyl)-1H-pyrrolo[2,3-b]pyridin-3-yl]carbonyl]-2,4-difluorophenyl]]	1,890 nM	982219 AU-BG	2501364 AU-BG	413818 AU-BG	662217 AU-BG	876269 AU-BG	2431268 AU-BG	4540797 AU-BG	5192876 AU-BG	27%	21830955 AU-BG	40%	17943024 AU-BG	62%	11383792 AU-BG	IC50 ([1]; Homo sapiens, A2058, approximately, read-out: IC50 with A2058 unsensitive cancer cells): ~4.2 µM; IC40, antiproliferative effect, A2058 ([1]; single agent, approximately): ~1,200 nM; Fold induction of PARP cleavage ([2]; human, WM-266-4 melanoma cells (BRAF mutant, PTEN-deficient), 24 h, 10000 nM): 1.38 fold; Fold induction of PARP cleavage ([3]; human, 24 h, 10000 nM): 1.00 fold; Fold induction of PARP cleavage [3, 7]: 1.17 fold; fold induction at 0.1 µM [4, 8]: 1.62; Fold induction of PARP cleavage ([4]; single agent 1 000 nM): 2.59 fold; Fold induction of PARP cleavage ([4]; single agent 10 000 nM): 3.42 fold; fold induction at 0.1 µM [5, 8]: 1.14; Fold induction of PARP cleavage ([5]; single agent 1 000 nM): 2.13 fold; Fold induction of PARP cleavage ([5]; single agent 10 000 nM): 2.44 fold
C[C@H]1Cc2ccccc2N1C(=O)Cc1nc(N2CCOCC2)cc(=O)[nH]1 [Compound (I), 2-{2-[(2S)-2-methyl-2,3-dihydro-1H-indol-1-yl]-2-oxoethyl}-6-(morpholin-4-yl)pyrimidin-4(3H)-one]	11,500 nM	509366 AU-BG	2141626 AU-BG	241428 AU-BG	502317 AU-BG	1756263 AU-BG	2380877 AU-BG	2685395 AU-BG	5173100 AU-BG	8%	27394341 AU-BG	42%	17416427 AU-BG	73%	8161752 AU-BG	–
